Source: US5750521A, “Mercaptoacetylamide disulfide derivatives useful as inhibitors of enkephalinase and ACE” (Hoechst Marion Roussel Inc., priority 1996, dated 1998)

Biological target: T1, ACE, rat kidney preparations (Rattus norvegicus, UniProt P47820)
T1 construct: compound- or vehicle-dosed rat kidney preparations; from tissue; host or cells: kidney of male Sprague-Dawley rats
T1 sequence (P47820 36-1313): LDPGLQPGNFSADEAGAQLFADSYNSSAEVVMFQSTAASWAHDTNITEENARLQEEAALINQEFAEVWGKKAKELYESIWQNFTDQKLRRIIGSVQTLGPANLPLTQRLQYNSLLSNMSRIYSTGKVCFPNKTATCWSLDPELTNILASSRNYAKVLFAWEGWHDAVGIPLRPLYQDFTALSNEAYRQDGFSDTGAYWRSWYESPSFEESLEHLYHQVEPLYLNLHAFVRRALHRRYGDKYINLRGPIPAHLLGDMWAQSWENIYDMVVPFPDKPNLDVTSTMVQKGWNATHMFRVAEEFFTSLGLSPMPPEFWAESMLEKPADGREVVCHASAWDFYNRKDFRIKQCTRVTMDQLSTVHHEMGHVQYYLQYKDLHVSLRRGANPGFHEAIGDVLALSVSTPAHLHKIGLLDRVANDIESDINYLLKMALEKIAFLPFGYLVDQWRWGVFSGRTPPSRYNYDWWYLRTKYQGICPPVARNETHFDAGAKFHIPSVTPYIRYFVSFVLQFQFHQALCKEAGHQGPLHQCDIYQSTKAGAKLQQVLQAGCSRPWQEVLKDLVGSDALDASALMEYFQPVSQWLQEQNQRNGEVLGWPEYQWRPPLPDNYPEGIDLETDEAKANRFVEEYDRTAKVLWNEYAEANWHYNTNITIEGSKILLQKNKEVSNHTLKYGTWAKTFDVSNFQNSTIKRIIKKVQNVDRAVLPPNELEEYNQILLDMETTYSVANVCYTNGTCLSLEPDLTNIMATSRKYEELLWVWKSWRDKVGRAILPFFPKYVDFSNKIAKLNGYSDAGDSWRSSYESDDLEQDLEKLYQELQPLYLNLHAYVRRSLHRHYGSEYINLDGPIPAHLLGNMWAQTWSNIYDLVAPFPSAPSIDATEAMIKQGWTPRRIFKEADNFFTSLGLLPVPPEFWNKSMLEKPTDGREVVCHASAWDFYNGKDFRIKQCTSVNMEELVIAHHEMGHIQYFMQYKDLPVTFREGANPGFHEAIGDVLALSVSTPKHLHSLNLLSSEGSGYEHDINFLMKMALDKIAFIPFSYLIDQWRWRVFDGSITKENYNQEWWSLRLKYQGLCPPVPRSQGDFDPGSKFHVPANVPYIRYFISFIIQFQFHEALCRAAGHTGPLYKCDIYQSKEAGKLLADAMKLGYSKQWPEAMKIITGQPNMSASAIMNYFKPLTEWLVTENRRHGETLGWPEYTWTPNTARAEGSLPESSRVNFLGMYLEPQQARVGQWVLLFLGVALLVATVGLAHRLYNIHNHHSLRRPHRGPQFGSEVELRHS
Assay: radiometric ACE assay with tritiated hippuryl-glycyl-glycine
Assay type: biochemical
Conditions: 1 μM enalaprilat; compound- or vehicle-dosed rat kidney preparations

inhibition of radioactive product formation: Complete inhibition
Compound: C[C@H](N[C@@H](CCc1ccccc1)C(=O)O)C(=O)N1CCC[C@H]1C(=O)O [enalaprilat]
